Literature values in US20050158775A1, “Novel plamid DNA comprising reoprter gene DNA and use of the same” (priority 1997, published 2005).

Test system: PPAR γ
Settings: at a concentration of 10 μM or less; cited from earlier work

CCCCC[C@H](O)/C=C/[C@@H]1[C@H]2C/C(=C/CCCC(=O)O)C[C@H]2C[C@H]1O [carbacyclin]
PPAR γ agonist activity: does not show PPAR γ agonist activity
